Reference: patent publication US8580478B2, “Latent acids and their use” (BASF SE, priority 2010, dated 2013)

Assay: Solubility of photoacid generator compounds in cyclohexanone
Format: physicochemical
Details: cyclohexanone as solvent, with stirring; lower amount = better solubility
Method: In order to determine the solubility of photoacid generator compounds of the present invention, to a weighed amount of the compound to be tested is added cyclohexanone as the solvent with stirring. Determined is the amount of cyclohexanone needed to completely dissolve the photoacid generator compound. […]

Solvent needed to completely dissolve 10 g of the compound: 24 mL
Structure (SMILES): CC12CCC(C(=O)OCC(F)C(F)(F)S(=O)(=O)O)(OC1=O)C2(C)C (stereo not shown) [Example 57]
